According to patent publication US20220296573A1, “NOVEL COMPOUNDS AND PHARMACEUTICAL COMPOSITIONS THEREOF FOR THE TREATMENT OF INFLAMMATORY DISORDERS” (Galapagos NV, priority 2019, published 2022):
pIC50: −log10 of the molar value.

Experiments:
Human Hepatocyte = assay: Metabolic stability in human hepatocytes; assay type: in vitro ADME; conditions: human cryopreserved hepatocytes, 1 μM
Description: (§1) The aim of this assay is to determine the metabolic stability of the compound in hepatocytes (cryopreserved) of different species. Low hepatocyte stability may result in the formation of unwanted metabolites, high clearance, and therefore is not desirable.
(§2) A 10 mM stock solution of test compound in DMSO was first diluted in DMSO to 3 mM, and then in modified Krebs-Henseleit buffer (Sigma, K3753) to 5 μM. This compound dilution was added to a suspension of pooled cryopreserved hepatocytes (BioreclamationIVT) at 37° C. under gentle shaking.
(§3) Final reaction conditions were: 1 μM of test compound, 0.03% DMSO, 0.5 million viable hepatocytes/mL, and 75 μL incubation volume.
(§4) Testosterone (1 μM) and 7-hydroxycoumarin (1 μM) were used, respectively as phase I and phase II metabolic reaction controls.
(§5) After 0, 10, 20, 45, 90, 120 and 180 min of incubation, the reaction was terminated with 225 μL of MeCN:MeOH (2:1) containing 100 ng/mL of diclofenac as analytical internal standard. Samples were mixed, centrifuged and the supernatant analyzed by LC-MS/MS.
(§6) The instrument responses (ratios of test compound and internal standard peak areas) were referenced to the zero time point samples (considered as 100%) in order to determine the percentage of compound remaining.
(§7) Plots of percentage compound remaining were used to determine the intrinsic clearance in the hepatocyte incubations using the following equations:
(§8) Scaled Clint [L/h/kg]=Clint [μL/min/10^6 cells]*#(10) cells/g liver*60*(1/10^6) Scaled Clint unbound [L/h/kg]=Clint [L/h/kg]/Fu,inc where: fu,inc equals hepatocyte binding, derived from microsomal binding (fu,mic) by following equation: […]

Mouse Hepatocyte = assay: Metabolic stability in mouse hepatocytes; assay type: in vitro ADME; conditions: mouse cryopreserved hepatocytes, 1 μM
Description: as §1, §2, §3, §4, §5, §6, §7, §8

human IRAK-4 = biological target: T1, human IRAK-4 (Homo sapiens, UniProt Q9NWZ3); assay: Phosphorylation IC50 determination for human IRAK-4 (ADP-Glo Kinase Assay); conditions: human IRAK-4, substrate RIP140, Km ATP; read-out: IRAK4 ADPglo biochemical assay IC50
T1 construct: purchased Carna Biosciences 09 145
T1 sequence (Q9NWZ3 1-460): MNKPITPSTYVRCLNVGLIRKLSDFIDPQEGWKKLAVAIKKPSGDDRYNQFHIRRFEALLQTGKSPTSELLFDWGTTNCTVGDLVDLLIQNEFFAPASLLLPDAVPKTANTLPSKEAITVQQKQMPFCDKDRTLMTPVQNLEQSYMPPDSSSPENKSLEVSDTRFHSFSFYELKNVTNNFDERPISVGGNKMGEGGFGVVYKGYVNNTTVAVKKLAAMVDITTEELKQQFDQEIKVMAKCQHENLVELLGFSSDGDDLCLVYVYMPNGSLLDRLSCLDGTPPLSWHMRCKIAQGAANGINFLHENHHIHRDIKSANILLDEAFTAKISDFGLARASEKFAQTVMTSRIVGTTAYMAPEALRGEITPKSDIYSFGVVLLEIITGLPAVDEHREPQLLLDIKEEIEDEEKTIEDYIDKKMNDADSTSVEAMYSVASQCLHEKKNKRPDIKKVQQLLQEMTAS
Description: The phosphorylation of the substrate RIP140 (SEQ ID1) by IRAK4 at Km ATP was detected with the ADP-Glo Kinase Assay (Promega, Cat #V9103), a luminescent kinase assay which measures the ADP formed from a kinase reaction. (Zegzouti et al. 2009) In a second step the kinase reaction was terminated and all the remaining ATP was depleted. In a final step the ADP was converted into ATP and this newly synthesized ATP was measured by using a luciferase/luciferin reaction with a luminescent reader. The luminescent signal positively correlated with kinase activity, in particular kinase inhibition giving a decrease of the luminescent signal.
For the semi-automated assay, the positive control (100% inhibition) was prepared by diluting 10 mM staurosporine stock mixture (20 μL) in water (3.8 mL) and DMSO (180 μL), thus resulting in a […] staurosporine solution at 1% DMSO (final concentration after further dilution in the kinase reaction).
For the automated assay, no pre-dilution of the 10 mM staurosporine stock was made. 10 mM staurosporine was spotted directly in the assay plate using acoustic dispensing and complemented with DMSO to result in a similar final concentration as mentioned above.
For the semi-automated assay, the negative control (0% inhibition) was prepared by mixing water (3.8 mL) and DMSO (200 μL) resulting in a final concentration of 1% DMSO after further dilution in the kinase reaction. For the automated assay no pre-dilution of DMSO was done. 100% DMSO was spotted directly on the assay plate.
The assay buffer solution was prepared at a concentration corresponding to 5 fold the final (most diluted) assay concentration by mixing a solution of 125 mM TRIS pH 7.5+0.05% Triton X-100+2.5 mM EGTA (5.27 mL) with 1M mgCl2 (72 μL), 1M DTT (57.6 μL), and 200 mM MnCl2 (360 μL).
For example, for the semi-automated method, the enzyme-substrate mixture was prepared by mixing water (3999 μL), assay buffer solution (1380 μL), 1 mM RIP140 (138 μL—SEQ ID1), and 200 ng/mL IRAK 4 (3.45 μL Carna Biosciences, 09 145).
For semi-automated method, the ATP mixture was prepared at a concentration corresponding to 2.5 fold the final (most diluted) assay concentration of the semi-automated method and 1.5 fold the final (most diluted) assay concentration of the automated method. For example, for the semi-automated method, the ATP mixture was prepared by mixing water (4126 μL), assay buffer solution (1380 μL), and 10 mM ATP (13.80 μL).
The assay are performed either in a semi-automated or fully automated manner. The assay volume and the incubation time of the ADP detection were different accordingly the method used.
The compounds were prepared as a serial dilution of 10 point dose responses with 1/5 dilution steps in 100% DMSO starting from 2 mM highest concentration, diluted 1/20 in water. 1 μL was transferred dry to the assay plates.
On each assay plate 32 wells of each control (positive & negative) were added, followed by 2 μL enzyme-substrate mixture.
The reaction was started by adding 2 μL diluted ATP (final concentration Km ATP) on the assay plates. Plates were centrifuged for a few seconds at 1000 rpm followed by an incubation at r.t. for 120 min.
The reactions were stopped and the unconsumed ATP was depleted by adding 5 μL ADP-glo Reagent (Promega, Cat #V9103) to the reaction. The plates were quickly centrifuged at 1000 rpm and incubated at r.t. for 40 min corresponding to full ATP depletion.
The ADP was converted back to ATP and luciferase and luciferin were introduced to detect ATP by adding 10 μL kinase detection reagent (Promega, Cat #V9103) to the reaction. The plates were centrifuged for a few seconds at 1000 rpm and incubated at r.t. for a further 30 min.
Luminescent read out was performed on an Envision luminescent reader (Perkin Elmer).
For the automated assay, the compounds were prepared as a serial dilution of 10 point dose responses with 1/5 dilution steps in 100% DMSO starting from 2 mM highest concentration. […]

## CC(F)(F)c1cccc(C(=O)Nc2cn3cc(C4COCCO4)nc3cc2C(N)=O)n1 (stereo not drawn) [Compound 13, 6-(6-(1,1-difluoroethyl)picolinamido)-2-(1,4-dioxan-2-yl)imidazo[1,2-a]pyridine-7-carboxamide]
Human Hepatocyte
  Human Hepatocyte stability (Perc. remaining at 90 min): 93.85 Perc.
Mouse Hepatocyte
  Mouse Hepatocyte stability (Perc. remaining at 90 min): 72.8 Perc.
Human IRAK-4
  pIC50: 8.30 to 10.00

## CCOc1c(NC(=O)c2cccn(C3CC3)c2=O)cn2cc(C3CCOCC3)nc2c1F [Compound 12, 1-cyclopropyl-N-(7-ethoxy-8-fluoro-2-(tetrahydro-2H-pyran-4-yl)imidazo[1,2-a]pyridin-6-yl)-2-oxo-1,2-dihydropyridine-3-carboxamide]
Human Hepatocyte
  Human Hepatocyte stability (Perc. remaining at 90 min): 85.35 Perc.
Mouse Hepatocyte
  Mouse Hepatocyte stability (Perc. remaining at 90 min): 75.1 Perc.
Human IRAK-4
  pIC50: 8.00 to 8.30
